Reference: ChEMBL document CHEMBL3046811, “Syntheses and in vitro biological screening of 1-aryl-10H-[1,2,4]triazolo[3,4:3,4][1,2,4]triazino[5,6-b]indoles” (Med Chem Res, 2013)

Tests used:
Vaccinia virus = assay: Antiviral activity against Vaccinia virus infected African green monkey Vero 76 cells assessed as reduction in plaque number treated after viral infection measured after 3 days by plaque reduction assay; format: functional, organism-based; settings: Orthopoxvirus vaccinia, 72 h
[1] = tested on: Bovine viral diarrhea virus 1; assay: Antiviral activity against Bovine viral diarrhea virus 1 infected bovine MDBK cells assessed as protection against virus-induced cytopathogenicity treated 1 hr after viral infection measured after 3-4 days by MTT method; format: functional, organism-based; settings: Bovine viral diarrhea virus isolates and strains
[2] = Cytotoxicity against Chlorocebus aethiops (African green monkey) Vero 76 cells assessed as inhibition of cell viability after 48 to 120 hr by MTT assay; format: cell-based; settings: chlorocebus sabaeus
[3] = Cytotoxicity against Homo sapiens (human) MT4 cells assessed as inhibition of cell vaibility after 96 hr by MTT assay; format: cell-based
Poliovirus 1 = assay: Antiviral activity against Human poliovirus 1 strain Sabin infected African green monkey Vero 76 cells assessed as reduction in plaque number treated after viral infection measured after 2 days by plaque reduction assay; format: functional, organism-based; settings: Enterovirus C, 48 h
Human alphaherpesvirus 1 = assay: Antiviral activity against Human herpesvirus 1 infected African green monkey Vero 76 cells assessed as reduction in plaque number treated after viral infection measured after 3 days by plaque reduction assay; format: functional, organism-based; settings: Human alphaherpesvirus 1, Vero, 72 h
[4] = Cytotoxicity against Mesocricetus auratus (Syrian golden hamster) BHK21cells assessed as inhibition of cell viability after 48 to 120 hr by MTT assay; format: cell-based; settings: BHK-21 cells
[5] = tested on: Mammalian orthoreovirus 1; assay: Antiviral activity against Mammalian orthoreovirus 1 infected Syrian hamster BHK-21 cells assessed as protection against virus-induced cytopathogenicity treated 1 hr after viral infection measured after 3-4 days by MTT method; format: functional, organism-based; settings: Mammalian orthoreovirus 1, BHK-21
Coxsackievirus B2 = assay: Antiviral activity against Human coxsackievirus B2 infected in African green monkey Vero 76 cells assessed as reduction in plaque number treated after viral infection measured after 3 days by plaque reduction assay; format: functional, organism-based; settings: Enterovirus B, 72 h
[6] = Cytotoxicity against Bos taurus (bovine) MDBK cells assessed as inhibition of cell viability after 48 to 120 hr by MTT assay; format: cell-based; settings: cattle
[7] = tested on: Human immunodeficiency virus 1; assay: Antiviral activity against Human immunodeficiency virus 1 infected human MT4 cells assessed as protection against virus-induced cytopathogenicity treated before viral infection measured after 4 days by MTT assay; format: functional, organism-based; settings: Human immunodeficiency virus 1, MT4, 96 h
Yellow fever virus = assay: Antiviral activity against Yellow fever virus infected Syrian hamster BHK-21 cells assessed as protection against virus-induced cytopathogenicity treated 1 hr after viral infection measured after 3-4 days by MTT method; format: functional, organism-based
[8] = tested on: Respiratory syncytial virus; assay: Antiviral activity against Respiratory syncytial virus infected African green monkey Vero 76 cells assessed as reduction in plaque number treated after viral infection measured after 5 days by plaque reduction assay; format: functional, organism-based; settings: human respiratory syncytial virus, 120 h
[9] = tested on: Vesicular stomatitis virus; assay: Antiviral activity against Vesicular stomatitis virus infected African green monkey Vero 76 cells assessed as reduction in plaque number treated after viral infection measured after 2 days by plaque reduction assay; format: functional, organism-based; settings: 48 h

Compound | EC50 (Vaccinia virus) [µM] | EC50 [1] [µM] | CC50 [2] [µM] | CC50 at 96 h [3] [µM] | EC50 (Poliovirus 1) [µM] | EC50 (Human alphaherpesvirus 1) [µM] | CC50 [4] [µM] | EC50 [5] [µM] | EC50 (Coxsackievirus B2) [µM] | CC50 [6] [µM] | EC50 [7] [µM] | EC50 (Yellow fever virus) [µM] | EC50 [8] [µM] | EC50 [9] [µM]
COc1c(C)c2c(c(O)c1C/C=C(\C)CCC(=O)O)C(=O)OC2 [MYCOPHENOLIC ACID] | 1.8 |  |  |  |  |  |  |  |  |  |  |  |  | 
Oc1cccc(-c2nnc3nnc4c5ccccc5[nH]c4n23)c1 | > 100 | > 100 | > 100 | > 100 | > 100 | > 100 | > 100 | > 100 | > 100 | > 100 | > 100 | > 100 | > 100 | > 100
Brc1cccc(-c2nnc3nnc4c5ccccc5[nH]c4n23)c1 | > 100 | > 100 | > 100 | > 100 | > 100 | > 100 | > 100 | > 100 | > 100 | > 100 | > 100 | > 100 | > 100 | > 100
O=[N+]([O-])c1ccc(-c2nnc3nnc4c5ccccc5[nH]c4n23)cc1 | > 100 | > 100 | > 100 | > 100 | > 100 | > 100 | > 100 | > 100 | > 100 | > 100 | > 100 | > 100 | > 100 | > 100
Cc1ccc(-c2nnc3nnc4c5ccccc5[nH]c4n23)cc1 | > 100 | > 100 | ≥ 100 | > 100 | > 100 | > 100 | > 100 | > 100 | > 100 | > 100 | > 100 | > 100 | > 100 | > 100
Fc1ccc(-c2nnc3nnc4c5ccccc5[nH]c4n23)cc1 | > 100 | > 100 | > 100 | > 100 | > 100 | > 100 | > 100 | > 100 | > 100 | > 100 | > 100 | > 100 | > 100 | > 100
Clc1ccccc1-c1nnc2nnc3c4ccccc4[nH]c3n12 | > 100 | > 100 | > 100 | > 100 | > 100 | > 100 | > 100 | > 100 | > 100 | > 100 | > 100 | > 100 | > 100 | > 100
COc1cccc(-c2nnc3nnc4c5ccccc5[nH]c4n23)c1 | > 65 | > 64 | 65 | 47 | > 65 | > 65 | > 100 | > 100 | > 65 | 64 | > 47 | > 100 | > 65 | > 65
COc1ccc(-c2nnc3nnc4c5ccccc5[nH]c4n23)cc1OC | > 100 | > 100 | > 100 | > 100 | > 100 | > 100 | > 100 | 55 | > 100 | > 100 | > 100 | > 100 | > 100 | > 100
C#C[C@@]1(O)[C@H](O)[C@@H](CO)O[C@H]1n1ccc(N)nc1=O [2'-ETHYNYL-D-CYTIDINE] |  |  |  |  | 18 |  |  |  | 23 |  |  |  |  | 
Cc1cn([C@H]2C[C@H](N=[N+]=[N-])[C@@H](CO)O2)c(=O)[nH]c1=O [ZIDOVUDINE] |  |  |  |  |  |  |  |  |  |  | 0.01 |  |  | 
C[C@@]1(O)[C@H](O)[C@@H](CO)O[C@H]1n1cnc2c(=O)[nH]c(N)nc21 [2'-B-METHYL-GUANOSINE] |  | 1.8 |  |  |  |  |  |  |  |  |  | 2.5 |  | 
